Data as given in patent US20080146555A1, “Uses of Kinase Inhibitors and Compositions Thereof” (GPC Biotech, Inc, priority 2004, published 2008).
Values joined by “and” are separate entries in the source; they are usually repeats but may differ in a detail not shown here. Equal entries are not always repeated. Structures can show the parent of a compound that is named as a salt. Where two headings read alike, the source gives them in different places.

Assays:
[1] = system: adriamycin resistant cell line (ADR-res); test: NCI panel, adriamycin resistant cell line, SRB assay; format: cell-based; conditions: Homo sapiens, 48 h
Text: The evaluation of compounds at the National Cancer Institute in their panel of 60 cell lines provides a wealth of information regarding efficacy in a wide range of tumor types and genetic backgrounds. Included within this panel are cell lines derived from leukemia, melanoma and cancers of the lung, colon, brain, ovary, breast, prostate and kidney. Use of this panel provides a measure of the efficacy of compounds in cells with alterations in many genes that are associated with neoplastic transformation including p53 and Her2/Neu as well as those involved in metabolism and those which confer multi-drug resistance. The data generated in these cell lines with the protocol described below can be used to evaluate the activity of compounds.
Cells were grown in RPMI-1640 10% FCS and plated in 96 well micro-titer plates at densities ranging from 5,000 to 40,000 cells/well. The plates were incubated for 24 hours at 37° C., 5% CO2 for 24 hours. Media containing twice the desired final concentration of the compound (5 doses spanning 4 logs) was prepared and 100 μl was added to each well containing 100 μl media plus cells to yield the desired final concentration. The plates were then incubated for an additional 48 hours.
The effect of the compound on cellular viability was determined with the Sulforhodamine B (SRB) assay, which measures total protein. Cells were fixed with cold TCA to a final concentration of 10% and incubated at 4° C. for 60 minutes. The supernatant was discarded and the plates were washed five times with water and air-dried. SRB solution at […] in 1% acetic acid was added to each well and the plates were incubated for 10 minutes at room temperature. The plates were washed five times with 1% acetic acid and air-dried. The bound stain was solubilized with 10 mM trizma base and the absorbance was read on a plate reader at […].

[2] = system: KU812 leukemia cells (Bcr-Abl); test: Proliferation of KU812 cells, calcein assay by flow cytometry; format: cell-based; conditions: Homo sapiens, KU812, 72 h, read-out: KU812 cells IC50 (proliferation)
Experimental: The proliferation of KU812 cells was assayed using the calcein viability assay described in Assay 3 but adapted for quantification by flow cytometry, briefly as follows: cells were recovered from sub-confluent plates by trypsinization and re-plated at a density of 1,000 cells/well in 24 well plates and incubated 24 hours to allow adherence. The media (RPMI-1640 supplemented with 10% FCS and Pen/Strep) was aspirated from each well and replaced with media containing the compound at a range from 0 to 0.250 μM. The plates were incubated for 3 days corresponding to approximately three cell cycles. Cellular viability was determined with the Calcein AM assay as follows. The cells were washed twice in PBS and incubated with 5 μM Calcein AM/PBS for 75 minutes before determining fluorescent units with a fluorescent plate reader. The Calcein AM assay was adapted for the flow cytometer by including an additional 1:16,000 dilution of the Calcein AM in PBS of which 200 ul was added to each sample of cells.

Abl T315I = molecular target: T1, Abl T315I (Homo sapiens, UniProt P00519, T315I); test: Abl T315I kinase assay; format: biochemical
T1 construct: purchased Upstate 14-522
Experimental: • 1. 5× Reaction Buffer: 40 mM MOPS, pH 7.0, 1 mM EDTA. • 2. Enzyme Dilution Buffer (EDB): 20 mM MOPS, pH 7.0, 1 mM EDTA, 0.01% Brij-35, 5% glycerol, 0.1% β-mercaptoethanol, 1 mg/ml BSA. • 3. […] Use 2.5 μl per assay point. • 4. […] Use 2.5 μl per assay point for a final assay concentration of 50 μM per assay point. • 5. [γ-^32P]ATP: Stock 1 mCi/100 μl (3000 Ci/mmol, obtained from PerkinElmer, Cat. # BLU002A). Make 10 μl aliquots (100 μCi/vial).
• 1. Add 5 μl of 5× Reaction Buffer per assay. • 2. Add 2.5 μl of Abltide (50 μM). • 3. […] Add 5 μl sterile, distilled water. • 5. Add 10 μl of the diluted [γ-^32P]ATP solution. • 6. Incubate for 10 minutes at 30° C. • 7. Transfer a 20 μl aliquot onto the center of a 2 cm×2 cm P81 paper. • 8. […] Wash the assay squares once for 5 minutes with acetone. • 10. Transfer the assay squares to vial and add 5 ml scintillation cocktail. • 11. Read in scintillation counter. Compare cpm of enzyme samples to cpm of control samples that contain background control.

JNK1α1 = molecular target: T2, JNK1α1 (Homo sapiens, UniProt P45983); test: JNK1α1 kinase assay; format: biochemical
T2 construct: purchased Upstate 14-327
T2 sequence (P45983 1-384 isoform P45983-2, species assumed): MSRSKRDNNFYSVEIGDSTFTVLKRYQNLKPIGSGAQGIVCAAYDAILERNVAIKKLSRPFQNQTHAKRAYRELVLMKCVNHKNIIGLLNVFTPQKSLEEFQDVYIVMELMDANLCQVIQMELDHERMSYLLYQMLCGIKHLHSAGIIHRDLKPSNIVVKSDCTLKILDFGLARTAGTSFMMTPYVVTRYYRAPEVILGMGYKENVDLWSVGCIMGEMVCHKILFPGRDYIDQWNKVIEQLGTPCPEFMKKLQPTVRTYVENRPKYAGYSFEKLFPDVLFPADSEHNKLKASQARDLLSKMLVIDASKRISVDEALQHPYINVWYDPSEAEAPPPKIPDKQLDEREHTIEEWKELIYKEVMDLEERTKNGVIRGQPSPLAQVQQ
Experimental: • 1. 10× Reaction Buffer: 500 mM Tris-HCl pH 7.5, 1 mM EGTA, 1% 2-mercaptoethanol. • 2. Enzyme Dilution Buffer (EDB): 50 mM Tris-HCl pH 7.5, 0.1 mM EGTA, 0.1% 2-mercaptoethanol, 1 mg/ml BSA. • 3. JNK 11/SAPK1c, active: Dilute to 0.4-8 ng/μl with EDB. Use […] per assay point. • 4. ATF2 (amino acids 19-96) (Catalog #12-367): Prepare a 1.08 mg/ml stock. Use 2.5 μl per assay point for a final concentration of 3 μM per assay point. • 5. Magnesium/ATP Cocktail (Catalog #20-113): 75 mM MgCl2 and 500 μM ATP in 20 mM MOPS, pH 7.2, 25 mM β-glycerol phosphate, 5 mM EGTA, 1 mM sodium orthovanadate, 1 mM dithiothreitol. • 6. [γ-^32P]ATP: Stock 1 mCi/100 μl (3000 Ci/mmol, obtained from PerkinElmer, Cat. # BLU002A). Make 10 μl aliquots (100 μCi/vial). Before starting the assay, dilute an aliquot to 1 μCi/μl with 90 μl of Magnesium/ATP Cocktail diluted 1:2 with sterile, distilled water. […]
• 1. Add 2.5 μl of 10× Reaction Buffer per assay. • 2. Add 2.5 μl of ATF2 (amino acids 19-96). • 3. Add 2.5 μl (1-20 ng) JNK1α1/SAPK1c, active. • 4. Add 7.5 μl of sterile, distilled water. • 5. Add 10 μl of the diluted [γ-^32P]ATP mixture. • 6. Incubate for 10 minutes at 30° C. • 7. Transfer a 20 μl aliquot onto the center of a 2 cm×2 cm P81 paper. • 8. Wash the assay squares three times for 5 minutes with 0.75% phosphoric acid. • 9. Wash the assay squares once for 5 minutes with acetone. • 10. Transfer the assay squares to vial and add 5 ml scintillation cocktail. • 11. Read in scintillation counter. Compare cpm of enzyme samples to cpm of control samples that contain background control.

panel of Tyr kinases = test: Kinase panel, Tyr kinases (average); format: biochemical; conditions: average over panel; read-out: average IC50 among Tyr kinases
[3] = read-out: Inhibition (IC50), Table II (accession U07563, no symbol)
[4] = kinase panel, 10 μM ATP, read-out: JNK1α1 IC50
[5] = read-out: MAPK8 Inhibition (IC50)

For CC(C)N1CCN(C(=O)COc2ccc(-c3n[nH]c4c3C(=O)c3c(NC(=O)NN5CCOCC5)cccc3-4)cc2)CC1 [Compound A37], the IC50 [1] was less than 100000 nM, the IC50 [2] was 85 nM and the IC50 (Abl T315I; read-out: Abl T315I IC50) was 87 nM. For the same molecule, the IC50 (Abl T315I; [3]) was less than 100 nM, the IC50 (JNK1α1; [4]) was 10 to 100 nM and the IC50 (JNK1α1; [5]) was less than 50 nM. The IC50 (panel of Tyr kinases) was ~37 nM and 35.5 nM.

In the case of COCCN1CCN(Cc2ccc(-c3n[nH]c4c3C(=O)c3c(NC(=O)NN5CCOCC5)cccc3-4)cc2)CC1 [Compound B16, N-[3-(4-{[4-(2-methoxyethyl)piperazinyl]methyl}phenyl)-4-oxoindeno[2,3-d]pyrazol-5-yl](morpholin-4-ylamino)carboxamide dihydrochloride], the IC50 [1] is reported as less than 10000 nM, the IC50 ([2]; 3 days, calcein AM, flow cytometry) is reported as 54 nM and the IC50 (Abl T315I; read-out: Abl T315I IC50) is reported as roughly 100 nM. For the same molecule, the IC50 (Abl T315I; [3]) was less than 100 nM, the IC50 (JNK1α1; [4]) was less than 100 nM and the IC50 (JNK1α1; [5]) was less than 100 nM. It also gave an IC50 (panel of Tyr kinases) of roughly 55 nM.
